In one data set the target is T1, Glucocorticoid receptor (Homo sapiens, UniProt P04150).
T1 sequence (P04150 whole entry): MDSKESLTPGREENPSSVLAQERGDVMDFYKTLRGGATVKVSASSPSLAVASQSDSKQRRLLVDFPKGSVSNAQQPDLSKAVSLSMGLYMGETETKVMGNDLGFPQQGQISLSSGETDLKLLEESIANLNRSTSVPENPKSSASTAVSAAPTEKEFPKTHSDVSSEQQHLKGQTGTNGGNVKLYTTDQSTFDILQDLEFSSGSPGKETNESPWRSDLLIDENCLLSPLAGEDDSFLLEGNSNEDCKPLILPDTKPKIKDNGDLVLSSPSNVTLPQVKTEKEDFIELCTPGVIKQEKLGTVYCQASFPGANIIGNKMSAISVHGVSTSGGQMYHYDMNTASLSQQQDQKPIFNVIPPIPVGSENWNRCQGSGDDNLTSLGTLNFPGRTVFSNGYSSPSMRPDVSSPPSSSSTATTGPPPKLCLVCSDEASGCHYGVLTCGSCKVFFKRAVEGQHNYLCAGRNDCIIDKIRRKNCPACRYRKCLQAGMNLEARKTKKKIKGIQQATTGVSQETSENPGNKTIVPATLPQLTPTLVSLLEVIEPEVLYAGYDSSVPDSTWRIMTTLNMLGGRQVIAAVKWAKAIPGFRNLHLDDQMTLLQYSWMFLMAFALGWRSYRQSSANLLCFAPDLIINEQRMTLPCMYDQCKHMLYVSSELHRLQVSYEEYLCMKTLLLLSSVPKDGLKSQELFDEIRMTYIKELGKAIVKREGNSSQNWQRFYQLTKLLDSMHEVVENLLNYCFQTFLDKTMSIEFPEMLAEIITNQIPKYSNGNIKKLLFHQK
Briefly: Displacement of fluorescent-labeled Dexamethasone from GR by fluorescent polarization assay.

For another data set, the target named is T2, Progesterone receptor (Homo sapiens, UniProt P06401).
T2 sequence (P06401 whole entry): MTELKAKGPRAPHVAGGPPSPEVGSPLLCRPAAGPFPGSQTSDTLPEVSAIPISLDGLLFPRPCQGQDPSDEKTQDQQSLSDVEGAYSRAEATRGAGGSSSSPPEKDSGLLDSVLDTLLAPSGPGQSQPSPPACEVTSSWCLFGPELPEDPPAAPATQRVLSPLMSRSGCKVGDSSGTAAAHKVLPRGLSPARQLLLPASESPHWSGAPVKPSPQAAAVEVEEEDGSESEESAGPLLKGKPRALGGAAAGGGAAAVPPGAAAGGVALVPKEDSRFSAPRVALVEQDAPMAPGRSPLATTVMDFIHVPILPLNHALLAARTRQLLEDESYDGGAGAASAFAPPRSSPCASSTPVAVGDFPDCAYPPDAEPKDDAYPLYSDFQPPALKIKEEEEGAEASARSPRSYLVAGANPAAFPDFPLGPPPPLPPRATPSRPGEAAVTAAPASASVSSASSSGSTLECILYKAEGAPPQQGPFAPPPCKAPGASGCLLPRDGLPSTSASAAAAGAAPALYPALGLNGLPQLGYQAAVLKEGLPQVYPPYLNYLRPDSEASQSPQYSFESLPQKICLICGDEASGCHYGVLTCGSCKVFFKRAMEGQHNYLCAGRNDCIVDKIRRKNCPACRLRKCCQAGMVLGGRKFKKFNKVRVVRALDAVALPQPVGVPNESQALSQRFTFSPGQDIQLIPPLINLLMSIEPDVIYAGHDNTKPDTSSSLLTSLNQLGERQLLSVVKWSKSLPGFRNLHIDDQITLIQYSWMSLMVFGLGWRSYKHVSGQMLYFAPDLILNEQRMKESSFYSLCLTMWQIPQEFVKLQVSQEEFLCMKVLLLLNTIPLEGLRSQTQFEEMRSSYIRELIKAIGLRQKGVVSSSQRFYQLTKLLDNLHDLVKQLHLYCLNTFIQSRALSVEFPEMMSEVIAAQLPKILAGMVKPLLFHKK
Briefly: Binding affinity to PR.

A short description of data set [1]: Antiinflammatory activity in human primary synovial fibroblasts assessed as inhibition of IL1-induced IL6 release after 18 hrs by MSD technology. Type of data set: functional.
Data set [2] can be described thus: Antiinflammatory activity in human primary synovial fibroblasts assessed as inhibition of IL1-induced IL8 release after 18 hrs by MSD technology. In kind it is functional.
A further data set concerns Hepatocyte. Briefly: Toxicity in human hepatocytes assessed as increase in PEPCK mRNA level after 18 hrs by PCR. In kind it is cell-based.
Data set [3] in a line: Plasma clearance in CD rat at 1 mg/kg, po and 1 mg/kg, iv. Type of data set: ADME, organism-based.
A short description of data set [4]: Volume of distribution at steady state in CD rat at 1 mg/kg, po and 1 mg/kg, iv. Type of data set: ADME, organism-based. The note with it: in vivo, read-out: Vdss.
Data set [5] is described as follows: Volume of distribution at steady state in DBA1 mouse at 1 mg/kg, po and 1 mg/kg, iv. In kind it is ADME, organism-based. The note with it: in vivo, read-out: Vdss.
Data set [6] in a line: Tmax in CD rat at 1 mg/kg, po. Type of data set: ADME, organism-based. Also on record: dose 1 mg/kg, route oral. The note with it: in vivo.
A short description of data set [7]: Tmax in DBA1 mouse at 1 mg/kg, po. In kind it is ADME, organism-based. Also on record: dose 1 mg/kg, route oral. The note with it: in vivo.
Data set [8] is described as follows: Plasma concentration in mouse bearing mouse NIH-3T3 cells integrated with MMTV reporter gene at 10 mg/kg, po after 1 hr. Also on record: dose 10 mg/kg, route oral. Type of data set: ADME, organism-based, NIH3T3. (Reporter assays use an easily measured gene product as a stand-in for the process of interest.)
Data set [9] can be described thus: Relative plasma concentration in mouse assessed as ratio of plasma concentration in mouse at 10 mg/kg, po to IC50 for NF-kappaB transrepression activity in A549 cells expressing MMTV reporter gene. Type of data set: ADME, organism-based. Also on record: dose 10 mg/kg, route oral. Conditions: in vivo.
The nature of data set [10]: Relative fraction unbound in mouse assessed as ratio of fraction unbound in mouse at 10 mg/kg, po to IC50 for NF-kappaB transrepression activity in A549 cells expressing MMTV reporter gene. Type of data set: ADME, organism-based. Also on record: dose 10 mg/kg, route oral. The note with it: in vivo.
The nature of data set [11]: Plasma concentration in mouse bearing mouse NIH-3T3 cells integrated with MMTV reporter gene at 1 mg/kg, po after 1 hr. Type of data set: ADME, organism-based, NIH3T3. Also on record: dose 1 mg/kg, route oral.
A short description of data set [12]: Relative plasma concentration in mouse assessed as ratio of plasma concentration in mouse at 1 mg/kg, po to IC50 for NF-kappaB transrepression activity in A549 cells expressing MMTV reporter gene. The note with it: in vivo. Also on record: dose 1 mg/kg, route oral. In kind it is ADME, organism-based.
Data set [13] in a line: Relative fraction unbound in mouse assessed as ratio of fraction unbound in mouse at 1 mg/kg, po to IC50 for NF-kappaB transrepression activity in A549 cells expressing MMTV reporter gene. In kind it is ADME, organism-based. Also on record: dose 1 mg/kg, route oral. Conditions: in vivo.
The nature of data set [14]: Plasma concentration in mouse bearing mouse NIH-3T3 cells integrated with MMTV reporter gene at 0.1 mg/kg, po after 1 hr. Type of data set: ADME, organism-based, NIH3T3. Also on record: dose 0.1 mg/kg, route oral.
Data set [15] in a line: Relative plasma concentration in mouse assessed as ratio of plasma concentration in mouse at 0.1 mg/kg, po to IC50 for NF-kappaB transrepression activity in A549 cells expressing MMTV reporter gene. In kind it is ADME, organism-based. Also on record: dose 0.1 mg/kg, route oral. The note with it: in vivo.
The nature of data set [16]: Relative fraction unbound in mouse assessed as ratio of fraction unbound in mouse at 0.1 mg/kg, po to IC50 for NF-kappaB transrepression activity in A549 cells expressing MMTV reporter gene. Conditions: in vivo. Also on record: dose 0.1 mg/kg, route oral. In kind it is ADME, organism-based.
Data set [17] relates to Mus musculus. Briefly: Inhibition of IL1-induced circulating IL6 release in mouse at 10 mg/kg, po. In kind it is functional.
In data set [18] the test system is Mus musculus. Briefly: Inhibition of IL1-induced circulating IL6 release in mouse at 0.1 mg/kg, po. Type of data set: functional.
The subject of data set [19] is Mus musculus. Briefly: Inhibition of IL1-induced circulating IL6 release in mouse at 100 mg/kg, po. In kind it is functional.

Broadly, the IC50 is the concentration at which inhibition is half-maximal. As usually defined, the Tmax is the time at which the peak concentration occurs. As usually defined, the inhibition in vivo is the share of the control response that was lost under treatment. High values mean a strong effect, low ones a weak effect. As to `O=S(=O)(Cc1ccccc1)Nc1ccc(-c2ccc3c(cnn3-c3ccc(F)cc3)c2)c(C(F)(F)F)c1`, the IC50 is 10 nM at Glucocorticoid receptor, more than 10000 nM at Progesterone receptor, 3.16 nM in data set [1] and 2 nM in data set [2]. Further, in the data set with Hepatocyte, the Activity entry is on record as “Toxic”. Moreover, the clearance in data set [3] was determined as 8 mL/min/kg. For the same compound, the Vd in data set [4] came out at 2 L/kg; in [5] it was 1.8 L/kg. Further, the Tmax in data set [6] and in [7] was 6 h in each case. Also, the concentration at 1 h worked out at 2730 nM in data set [8], 290 nM in data set [11] and 25 nM in data set [14]. Besides, the “fold change (FC)” value in [9] is 273; in [10], 0.5; in data set [12], 29; in data set [13] it was 0.06; in [15], 2.5; in data set [16], 0.005. The compound further showed an inhibition in vivo at 10 mg/kg with Mus musculus [17] of 44%. This compound registered an inhibition in vivo at 0.1 mg/kg in the data set on Mus musculus [18] of 0%. In addition, in the data set with Mus musculus [19], the inhibition in vivo at 100 mg/kg worked out at 57%.

The values are drawn from ChEMBL document CHEMBL1155531, “Structure guided design of 5-arylindazole glucocorticoid receptor agonists and antagonists” (J Med Chem, 2010).
